Assay results from patent EP2823816A1, “Inhibitors of Neuropilin and use thereof for the treatment of Neuropilin-related diseases” (Tragex Pharma, priority 2013, dated 2015).

Experiments:
[1] = system: MDA-MB-231 + control shRNA; assay: Proliferation assay in shRNA-transfected cells; format: cell-based; conditions: Homo sapiens; inhibition of proliferation; clone MDA-MB-231 + control shRNA
Source text: (§1) The cell proliferation WST-1 assay is a colorimetric assay for the quantification of cell proliferation and viability, based on the enzymatic cleavage of the tetrazolium salt WST-1 added to the culture medium, to a water soluble colored formazan dye, detected by absorbance at 450 nm, by mitochondrial succinate-tetrazoliumreductase in viable cells. An augmentation in enzyme activity will then lead to an increase in the amount of formazan dye formed, which directly correlates to the number of metabolically active cells in the culture.
(§2) After an incubation period of 72 h, at day 4, were prepared the 19 mL medium with reagent WST-1 1mL ([…]). The medium was removed from the 96 microplate and 200 µL of solution WST-1/medium were added for each well. The cells were incubated at 37°C in a humidified atmosphere of 5% CO2 for 1h30 and the absorbance at 450-655 nm was measured by Microplate Manager 5.2 (Bio-Rad).
(§3) The effect of compound 1 of the invention on cell proliferation was tested according to the proliferation assay hereinabove described, in MDA-MB-231 cancer cells transfected with shRNA directed to NRP1 or NRP2 or with control shRNA.

[2] = system: MDA-MB-231 + shRNA directed to NRP1; assay: Proliferation assay in shRNA-transfected cells; format: cell-based; conditions: Homo sapiens; inhibition of proliferation; clone MDA-MB-231 + shRNA directed to NRP1
Source text: as §1, §2, §3

[3] = system: MDA-MB-231 + shRNA directed to NRP2; assay: Proliferation assay in shRNA-transfected cells; format: cell-based; conditions: Homo sapiens; inhibition of proliferation; clone MDA-MB-231 + shRNA directed to NRP2
Source text: as §1, §2, §3

[4] = system: HUVEC cells; assay: Adhesion test (crystal violet); format: cell-based; conditions: in vitro, Figure 1A
Experimental: After observation of cells under the microscope, old media were removed and the adherent cells washed gently twice with PBS (Phosphate Buffer Saline, -Ca^2+, -Mg^2+, Lonza cat n°: 17-512F/12). All cells were detached with 3 ml of trypsin/EDTA (chelator of calcium and magnesium ions) (Lonza), incubated for 5 min at 37°C, and examined using a microscope to ensure that the cells were detached and floating. Then, 3 ml TNS (Trypsin Neutralizing Solution, Lonza, France, cat n° CC-5002) or of culture medium were added to inactivate the trypsin, and the cell suspension was transferred in a falcon tube and centrifuged for 7 min at 1400 rpm. The supernatant was removed and the cell pellet resuspended in […] of culture medium. 50 µL of this solution were transferred in 20 µL of isotonic solution and the cells were counted by count cellular (Beckman Coulter). […]
After an incubation period of 72 h, the adherent cells were fixed with […] paraformaldehyde 3% for 15 min at room temperature. […] The microplate was stirred to obtain a homogenous solution and absorbance was quantified at 580 nm by Microplate Manager 5.2. The percentage of inhibition was calculated as follow: % inhibition = 100-[(DOsample/DOcontrol)*100]. […]

[5] = system: HUVEC cells; assay: Tube formation assay; format: cell-based; conditions: HUVEC on collagen, VEGF-A165-stimulation, Figure 2
Experimental: Collagen type I (1 mg/ml, BD) was mixed with 0.1N NaOH, 0.1% bicarbonate and 10X in medium EBM-2 and kept on ice until placed into the wells. The assay was prepared in 96-well plate format and the bottom layer of collagen was formed by adding 70 µL of the solution per well and allowing subsequent gelation at 37°C for 30 min. The HUVEC cells were then seeded on collagen at […] cells per well. After monolayer formation (one day), a second layer of collagen 200 µL per well was prepared according to the same protocol and gently placed on top of the cell layer. The compounds of the invention were added to the cells at the adhesion step (concentration corresponding to the Inhibitory Concentration 50 (IC50)). After 24 and 48 h of incubation at 37°C, tube formation was observed and pictures were taken.

[6] = system: MDA-MB-231 cells; assay: Adhesion test (crystal violet); format: cell-based, human; conditions: in vitro, Figure 3A
[7] = In vivo xenograft study, body weight; conditions: NOD-SCID IL-2Rγ-/- mice, both tested doses (10 or 50 mg/kg), oral gavage three times a week, Figure 5A
Experimental: Female (NOD-SCID, IL-2Rγ^-/-) mice 5-6 weeks old were injected subcutaneously with MDA-MB-231 cells (5.10^6) at a single site on their right flanks. Tumors were allowed to grow to about 100 mm^3 before being pair-matched by tumor size into treatment groups (8 mice/group). One group was treated with vehicles (8 mice receiving cremofor 12.5%/ethanol 12.5%/ H2O), one group was treated with 10 mg/kg of the compound 1 of the invention (8 mice receiving compound 1 + cremofor 12.5%/ethanol 12.5%/ H2O), one group was treated with 50 mg/kg of the compound 1 of the invention (8 mice receiving compound 1+ cremofor 12.5%/ethanol 12.5%/ H2O). All groups received 3 times a week by oral gavages approximately 100 µL of a solution containing the compound 1 of the invention. Mice were weighed regularly to assess toxicity of the treatments and the tumors were measured with calipers (width x width x length x Pi/6) to determine tumor growth. Mice survival was assessed during the study and metastatic development was investigated in lung, spleen and liver.

## CCOc1ccccc1NC(=O)c1ccc(C)c(S(=O)(=O)Nc2ccc(C)cc2)c1 [Compound 1, N-(2-ethoxyphenyl)-4-methyl-3-(N-(p-tolyl)sulfamoyl)benzamide]
[1]
  IC50: 0.8 ± 0.05 µM
[2]
  IC50: 9 ± 0.08 µM
[3]
  IC50: 10 ± 0.05 µM
[4]
  adhesion of HUVEC cells: inhibited
[5]
  formation of new blood vessels (tube formation): effectively inhibits the formation of new blood vessels
[6]
  adhesion of MDA-MB-231 cells: inhibits
[7]
  body weight (toxicity): no significant change in body weight
